The target in one series is Ima3pR279Q (Saccharomyces cerevisiae, UniProt P0CW40, R279Q). As to the kind of experiment: Substrate specificity of purified isomaltase variant. Type of series: biochemical. To be noted: 100 mM substrate (pNPG 5 mM), citrate–potassium phosphate buffer, pH 7, 30 °C.
Series [1] deals with T1, Ima3p (Saccharomyces cerevisiae, UniProt P0CW40). As to the kind of experiment: Kinetic parameters for selected substrates. Format: biochemical. To be noted: for Km: affinity constant for the substrate; for Km / kcat: mean ± SEM; for Ki: inhibition by high concentration of substrate.
For series [2], the target named is T2, Ima5p (Saccharomyces cerevisiae, UniProt P40884).
T2 sequence (P40884 1-581): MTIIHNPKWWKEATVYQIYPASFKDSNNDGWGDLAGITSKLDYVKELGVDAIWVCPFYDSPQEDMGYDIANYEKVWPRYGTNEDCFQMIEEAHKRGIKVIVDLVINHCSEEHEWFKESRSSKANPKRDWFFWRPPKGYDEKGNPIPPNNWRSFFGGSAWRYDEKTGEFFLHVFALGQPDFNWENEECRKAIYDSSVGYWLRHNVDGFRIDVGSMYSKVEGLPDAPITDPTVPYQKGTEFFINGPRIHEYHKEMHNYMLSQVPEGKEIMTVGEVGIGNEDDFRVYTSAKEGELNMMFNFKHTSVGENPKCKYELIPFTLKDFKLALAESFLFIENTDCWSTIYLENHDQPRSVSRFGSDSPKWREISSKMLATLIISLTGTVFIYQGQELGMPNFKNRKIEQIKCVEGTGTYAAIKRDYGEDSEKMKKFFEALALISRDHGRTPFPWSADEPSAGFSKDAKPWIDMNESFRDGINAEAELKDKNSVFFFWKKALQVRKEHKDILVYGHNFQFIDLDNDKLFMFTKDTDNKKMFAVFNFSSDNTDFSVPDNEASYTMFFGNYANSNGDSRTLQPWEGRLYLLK
As to the kind of experiment: Substrate specificity of purified isomaltase. Format: biochemical. To be noted: 100 mM substrate (pNPG 5 mM), pH 7, 30 °C; for Specific activities: citrate–potassium phosphate buffer.

Series [3] has as its target T3, Ima1p (Saccharomyces cerevisiae, UniProt P53051). As to the kind of experiment: Kinetic parameters for selected substrates. To be noted: for Km: affinity constant for the substrate; for Km / kcat: mean ± SEM. Format: biochemical.
Series [4] concerns the target T3, Ima1p. Kind of series: Substrate specificity of purified isomaltase. Type of series: biochemical. The conditions noted are these: 100 mM substrate (pNPG 5 mM), pH 7, 30 °C; for Specific activities: citrate–potassium phosphate buffer.
The target in series [5] is T2, Ima5p. As to the kind of experiment: Kinetic parameters for selected substrates. Type of series: biochemical. To be noted: for Km: affinity constant for the substrate; for Km / kcat: mean ± SEM.
The next series has as its target Ima3pL240P (Saccharomyces cerevisiae, UniProt P0CW40, L240P). Kind of series: Substrate specificity of purified isomaltase variant. Type of series: biochemical. To be noted: 100 mM substrate (pNPG 5 mM), citrate–potassium phosphate buffer, pH 7, 30 °C.
The target of series [6] is T4, Ima2p (Saccharomyces cerevisiae, UniProt Q08295). Kind of series: Substrate specificity of purified isomaltase. Format: biochemical. To be noted: 100 mM substrate (pNPG 5 mM), pH 7, 30 °C; for Specific activities: citrate–potassium phosphate buffer.
T4 sequence (Q08295 whole entry): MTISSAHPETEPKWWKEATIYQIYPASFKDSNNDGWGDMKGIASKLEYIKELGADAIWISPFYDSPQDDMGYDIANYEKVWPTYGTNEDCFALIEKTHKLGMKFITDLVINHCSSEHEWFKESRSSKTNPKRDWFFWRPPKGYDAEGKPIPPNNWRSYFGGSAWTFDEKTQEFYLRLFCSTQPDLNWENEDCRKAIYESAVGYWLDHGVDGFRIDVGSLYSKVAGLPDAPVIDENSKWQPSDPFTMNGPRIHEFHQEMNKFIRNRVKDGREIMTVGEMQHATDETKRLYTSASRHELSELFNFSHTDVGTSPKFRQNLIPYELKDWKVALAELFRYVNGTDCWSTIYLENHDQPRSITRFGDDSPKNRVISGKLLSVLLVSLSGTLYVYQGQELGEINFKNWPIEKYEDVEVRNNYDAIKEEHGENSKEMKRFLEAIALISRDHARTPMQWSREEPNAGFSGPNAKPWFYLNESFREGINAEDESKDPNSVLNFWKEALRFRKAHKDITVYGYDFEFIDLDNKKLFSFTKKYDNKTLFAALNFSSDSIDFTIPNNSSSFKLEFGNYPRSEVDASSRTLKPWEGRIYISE
Series [7] deals with T1, Ima3p. As to the kind of experiment: Substrate specificity of purified isomaltase. Type of series: biochemical. The conditions noted are these: 100 mM substrate (pNPG 5 mM), pH 7, 30 °C; for Specific activities: citrate–potassium phosphate buffer.
Series [8] addresses T4, Ima2p. Kind of series: Kinetic parameters for selected substrates. Format: biochemical. To be noted: for Km: affinity constant for the substrate; for Km / kcat: mean ± SEM.
Series [9] in a line: Melting temperature by differential scanning fluorimetry. The conditions noted are these: mean ± 2 SEM. Type of series: physicochemical, Saccharomyces cerevisiae.
A short description of series [10]: Thermostability assay: time-dependent heat inactivation, half-life. Type of series: biochemical, Saccharomyces cerevisiae. The conditions noted are these: pNPG 5 mM, mean ± 2 SEM.
Where [11] appears, read: inhibition by high concentration of substrate.

The source of these data is publication PMC3953731 (FEBS Open Bio, 2014).

Residue numbers refer to the chain shown, from its start. Names may count otherwise.

Chain of Ima3pR279Q (P0CW40 whole entry R279Q): as the sequence (Q08295 whole entry) above, with A54T, P240L counted along it
T3 sequence (P53051 whole entry): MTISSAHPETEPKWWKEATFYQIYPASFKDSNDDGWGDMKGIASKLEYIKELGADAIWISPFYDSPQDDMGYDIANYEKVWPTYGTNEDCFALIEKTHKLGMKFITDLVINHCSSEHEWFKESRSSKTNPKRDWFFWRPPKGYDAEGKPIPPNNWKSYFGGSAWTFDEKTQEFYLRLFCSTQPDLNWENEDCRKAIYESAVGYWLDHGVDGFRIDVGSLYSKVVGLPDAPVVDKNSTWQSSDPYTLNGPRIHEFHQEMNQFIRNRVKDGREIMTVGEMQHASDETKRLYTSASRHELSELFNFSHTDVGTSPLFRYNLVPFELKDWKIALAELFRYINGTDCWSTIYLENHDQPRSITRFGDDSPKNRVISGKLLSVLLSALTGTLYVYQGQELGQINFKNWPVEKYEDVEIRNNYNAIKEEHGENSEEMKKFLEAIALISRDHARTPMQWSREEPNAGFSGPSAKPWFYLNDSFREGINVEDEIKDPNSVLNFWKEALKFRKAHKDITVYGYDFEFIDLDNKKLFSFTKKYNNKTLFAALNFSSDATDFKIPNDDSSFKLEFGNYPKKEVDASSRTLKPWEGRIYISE
Chain of Ima3pL240P (P0CW40 whole entry L240P): as the sequence (Q08295 whole entry) above, with A54T, Q279R counted along it

In the case of `OC[C@H]1O[C@H](OC[C@H]2O[C@H](O)[C@H](O)[C@@H](O)[C@@H]2O)[C@H](O)[C@@H](O)[C@@H]1O` [Isomaltose, O-α-D-Glucosyl-(1→6)-α-D-glucose], the Specific activities was found to be 29 µmol/min/mg at Ima3pR279Q; 65 µmol/min/mg on Ima5p [2]; 60 µmol/min/mg at Ima1p [4]; 2.2 µmol/min/mg on Ima3pL240P; 54 µmol/min/mg on Ima2p [6]; 7.2 µmol/min/mg on Ima3p [7]. The Km (commonly the substrate concentration at which the rate is half of its maximum) on Ima3p [1] worked out at 37 ± 9 mM; at Ima1p [3] it was 17 ± 4 mM; on Ima5p [5] it was 13 ± 2 mM; at Ima2p [8], 17 ± 2 mM. Also, the kcat (usually the maximal rate divided by the concentration of active sites) at Ima3p [1] stood at 15 ± 2 s⁻¹; at Ima1p [3], 103 ± 12 s⁻¹; on Ima5p [5], 101 ± 8 s⁻¹; at Ima2p [8] it was 97 ± 5 s⁻¹. Besides, the “relative activity, velocity on isomaltose set to 100” value (“relative activity, velocity” for short) at Ima5p [2], on Ima1p [4], on Ima2p [6] and at Ima3p [7] was 100% each time.
Consider `OC[C@H]1O[C@H](OC[C@H]2O[C@H](OC[C@H]3OC(O)[C@H](O)[C@@H](O)[C@@H]3O)[C@H](O)[C@@H](O)[C@@H]2O)[C@H](O)[C@@H](O)[C@@H]1O` (stereo partly drawn) [Isomaltotriose, O-α-D-Glucosyl-(1→6)-α-D-glucosyl-(1→6)-D-glucose], for which the Ki entry on Ima3p [1], at Ima1p [3] (setting [11]), on Ima5p [5] (setting [11]) and on Ima2p [8] (setting [11]) was “None” in each case. The kcat on Ima3p [1] was 0 s⁻¹; on Ima1p [3], 21 ± 4 s⁻¹; at Ima5p [5], 18 ± 3 s⁻¹; on Ima2p [8] it was 15 ± 2 s⁻¹. In addition, the Specific activities was 8.6 µmol/min/mg on Ima5p [2], 7.9 µmol/min/mg at Ima1p [4], 7.6 µmol/min/mg on Ima2p [6] and 0 µmol/min/mg on Ima3p [7]. The “relative activity, velocity” value is 13% at Ima5p [2], 13% at Ima1p [4] and 14% at Ima2p [6]. Besides, the Michaelis-Menten constant (Km) on Ima5p [5] was 83 ± 25 mM; on Ima2p [8], 72 ± 16 mM.
In the case of `OC[C@H]1O[C@H](O[C@@H]2COC(O)(CO)[C@@H](O)[C@@H]2O)[C@H](O)[C@@H](O)[C@@H]1O` (stereo partly drawn) [Leucrose, O-α-D-Glucosyl-(1→5)-D-fructose], the Specific activities on Ima3pR279Q was 1.5 µmol/min/mg; on Ima5p [2], 1.1 µmol/min/mg; on Ima1p [4] it was 8.6 µmol/min/mg; at Ima3pL240P it was 0 µmol/min/mg; at Ima2p [6] it was 8.6 µmol/min/mg; on Ima3p [7], 0 µmol/min/mg. Moreover, the “relative activity, velocity” value is 2% at Ima5p [2], 14% on Ima1p [4] and 16% on Ima2p [6].
For `OC[C@H]1O[C@H](OC[C@H]2OC(O)(CO)[C@@H](O)[C@@H]2O)[C@H](O)[C@@H](O)[C@@H]1O` (stereo partly drawn) [Palatinose, O-α-D-Glucosyl-(1→6)-D-fructose], the Specific activities was 33 µmol/min/mg on Ima3pR279Q; 39 µmol/min/mg at Ima5p [2]; 52 µmol/min/mg on Ima1p [4]; 2.8 µmol/min/mg at Ima3pL240P; 74 µmol/min/mg at Ima2p [6]; 5 µmol/min/mg at Ima3p [7]. For the same molecule, the Michaelis-Menten constant (Km) at Ima3p [1] is 7 ± 0.7 mM; at Ima1p [3], 18 ± 4 mM; at Ima5p [5], 12 ± 3 mM; on Ima2p [8], 11 ± 2 mM. Further, the Ki entry at Ima3p [1] was “None”. The turnover number (kcat) at Ima3p [1] is 6.0 ± 0.1 s⁻¹; at Ima1p [3] it was 78 ± 8 s⁻¹; on Ima5p [5], 56 ± 5 s⁻¹; on Ima2p [8] it was 104 ± 6 s⁻¹. In addition, the “relative activity, velocity” value on Ima5p [2] was 60%; at Ima1p [4], 87%; on Ima2p [6] it was 137%; on Ima3p [7], 69%.

B1: Ima3p: isomaltase from S. cerevisiae encoded by IMA3/YIL172C (identical IMA4), His-tagged, purified (protein, UniProt P0CW41 1-589, looked up)
Oligo-1,6-glucosidase IMA4: MTISSAHPETEPKWWKEATIYQIYPASFKDSNNDGWGDMKGIASKLEYIKELGTDAIWISPFYDSPQDDMGYDIANYEKVWPTYGTNEDCFALIEKTHKLGMKFITDLVINHCSSEHEWFKESRSSKTNPKRDWFFWRPPKGYDAEGKPIPPNNWRSYFGGSAWTFDEKTQEFYLRLFCSTQPDLNWENEDCRKAIYESAVGYWLDHGVDGFRIDVGSLYSKVAGLPDAPVIDENSKWQLSDPFTMNGPRIHEFHQEMNKFIRNRVKDGREIMTVGEMRHATDETKRLYTSASRHELSELFNFSHTDVGTSPKFRQNLIPYELKDWKVALAELFRYVNGTDCWSTIYLENHDQPRSITRFGDDSPKNRVISGKLLSVLLVSLSGTLYVYQGQELGEINFKNWPIEKYEDVEVRNNYDAIKEEHGENSKEMKRFLEAIALISRDHARTPMQWSREEPNAGFSGPNAKPWFYLNESFREGINAEDESKDPNSVLNFWKEALRFRKAHKDITVYGYDFEFIDLDNKKLFSFTKKYDNKTLFAALNFSSDSIDFTIPNNSSSFKLEFGNYPRSEVDASSRTLKPWEGRIYISE
modifications: His tag
As to B1, the melting temperature (Tm) – broadly, the temperature at which the thermal transition is half complete – was determined as 47.0 ± 0.3 °C in [9] (pH 6, DSF); 38.8 ± 0.5 °C in series [9] (pH 7, DSF); 29.9 ± 0.3 °C in series [9] (pH 8, DSF). Besides, the t1/2 was determined as 23.2 ± 1.4 min in [10] (37 °C), 7.6 ± 0.9 min in series [10] (40 °C) and 2.9 ± 0.5 min in [10] (42 °C).

B2: Ima3p_R279Q: Ima3p variant with R279Q mutation (protein, UniProt P0CW40 1-589, looked up, variant R279Q)
Oligo-1,6-glucosidase IMA3: B1 Oligo-1,6-glucosidase IMA4 with R279Q
Take B2: the Tm in series [9] (pH 7, DSF) is 37.6 ± 0.8 °C. Also, the values for the t1/2 in [10] (37 °C) and in series [10] (40 °C) were 9.5 ± 1.7 min and 2.0 ± 0.3 min, respectively.

B3: Ima5p: isomaltase from S. cerevisiae encoded by IMA5/YJL216C, His-tagged, purified (protein, UniProt P40884 1-581, looked up)
Oligo-1,6-glucosidase IMA5: T2 sequence (P40884 1-581)
modifications: His tag
Regarding B3, the midpoint of thermal melting (Tm) stood at 36.6 ± 0.4 °C in [9] (pH 6, DSF) and 35.7 ± 0.5 °C in series [9] (pH 8, DSF). The results for the t1/2 in series [10] (37 °C) and in series [10] (40 °C) were 2.9 ± 0.4 min and 0.8 ± 0.1 min, respectively.
